Experimental data as given in patent US11638736B2, “Compositions for preventing or treating diseases or disorders associated with neuro-inflammation, neuro-apoptosis, or neuro- oxidative damage and uses thereof” (priority 2018, dated 2023).

Key:
[1] = test system: cytochrome C; format: in vivo, C57BL/6 mice; conditions: MPTP-intoxicated mice, brain
Description: (§1) All experimental animals were approved by the Institutional Animal Care and Use Committee at Konkuk University (IACUC approval number, KU18045), Seoul, Republic of Korea.

[2] = test system: iNos; format: in vivo, C57BL/6 mice; conditions: brain
Description: as §1

[3] = test system: SOD; format: in vivo, C57BL/6 mice; conditions: MPTP-treated mice, brain
Description: as §1

[4] = test system: Mac-1; test: Western blotting, MPTP-treated SH-SY5Y cells: Mac-1; format: cell-based, human; conditions: 2-mM MPTP-intoxicated SH-SY5Y cells
Description: (§2) Human Neuroblastoma Cells (SH-SY5Y) (Korean Cell Bank, Seoul, Korea) were cultured in Dulbecco's modified Eagle's medium containing 10% fetal bovine serum (Hyclone, Logan, Utah, USA) and 1% penicillin-streptomycin (GIBCO, Grand Island, N.Y., USA) in a humidified incubator with 5% CO2 at 37° C.

[5] = test system: cytochrome C; test: Western blotting, MPTP-treated SH-SY5Y cells: cytochrome C; format: cell-based, human; conditions: MPTP-intoxicated SH-SY5Y cells
Description: as §2

[6] = test system: TH-positive cells; test: Immunohistochemical staining of tyrosine hydroxylase (TH) neurons, MPTP-intoxicated mice; format: in vivo, C57BL/6 mice
Description: Brain sections (4 μm thick) were deparaffinized in xylene-alcohol series for 5 min each, with subsequent recovery of antigenic sites on steam fluent (pot value) for 30 min. The slides were washed twice for 5 min with 1× phosphate-buffered saline (PBS) and then immersed in 0.3% hydrogen peroxide for 30 min at 25° C. to block endogenous peroxidase activity. The sections were incubated with 10% goat serum (for polyclonal antibodies) for 30 min and then incubated at 4° C. with the TH primary antibody (Abcam, Cambridge, UK) for 24 h. Subsequently, all samples were incubated with biotinylated goat anti-rabbit IgG (H+L) horseradish peroxidase (HRP)-conjugated antibodies (Zymax). The sections were incubated with 3,3-diaminobenzidine (Vectro Laboratories, Inc., Burlingame, Calif., USA) for 10 min at 37° C. Finally, the tissue sections were counterstained with hematoxylin for 2 min, dehydrated with an alcohol-xylene series, and mounted with coverslips using Permount mounting medium (Thermo Fisher Scientific). The specimens were examined using a Nikon Eclipse TS100 microscope (Nikon, Tokyo, Japan) at 200× magnification, and the microscopy images were analyzed using the OptiView image analysis software (Korea Lab Tech, Seongnam-si, Republic of Korea). Immunopositive neurons were counted manually.

[7] = test system: SH-SY5Y cells; test: MTT cell viability in MPTP-treated SH-SY5Y cells; format: cell-based, human; conditions: 24 h
Description: 1-Methyl-4-phenylpyridinium (MPP+) induces a severe parkinsonian-like syndrome and a significant reduction in dopaminergic cells by the selective inhibition of complex I in the mitochondrial electron transport chain.
as §2
SH-SY5Y ([…]) cells were cultured in a 96-well plate, and cell viability was determined using the MTT (Promega, Madison, Wis., USA) assay as described previously. […] The MTT solution was then added, followed by incubation at 37° C. for 4 h. The supernatant was removed, and the formed formazan crystals were dissolved in dimethyl sulfoxide. The absorbance of the resulting solution was measured at 540 nm using a UVM 340 microplate reader (Biochrom Asys, Cambridge, UK).

[8] = test system: COX-2; format: in vivo, SD rats
Description: (§3) Four-week-old male SD rats were purchased from Rion Bio, Inc. and were housed in a temperature-controlled (21-22° C.) and light-controlled (12 h light/dark cycle) environment with 70% humidity; they were given free access to water and rodent chow. […] The brains were dissected and analyzed by histological and western blotting analysis.
(§4) Rat brains were lysed in radioimmunoprecipitation assay lysis buffer containing protease inhibitor (Roche, Mannheim, Germany) and centrifuged at 10,000×g for 30 min at 4° C. Total protein levels were determined using a Bio-Rad protein kit (Bio-Rad, Hercules, Calif., USA). The proteins were separated by electrophoresis in a 10-15% sodium dodecyl sulfate-polyacrylamide gel and transferred onto the Immobilon-P transfer membrane (EMD Millipore Co., Bedford, Mass., USA). The membrane was blocked with 5% bovine serum albumin (Sigma-Aldrich). […] Protein bands were detected using a chemiluminescence method (Thermo Fisher Scientific) by a C-DiGit Blot Scanner (Li-COR, Lincoln, Nebr., USA), and their densities were quantified using ImageJ (NIH, Rockville, Md., USA). […]

[9] = test system: Mac-1
Description: as §3, §4

[10] = test system: iNOS; test: Western blotting of midbrain, MPTP-treated rats: iNOS; format: in vivo, SD rats; conditions: levodopa 10 mg/kg
Description: as §3, §4

[11] = test system: Bcl-2; test: Western blotting of brain, MPTP-treated mice: Bcl-2; format: in vivo, C57BL/6 mice; conditions: Levodopa (positive control)
Description: as §1

[12] = test system: p-IκB-α; test: Western blotting of midbrain, MPTP-treated rats: p-IκB-α; format: in vivo, SD rats; conditions: levodopa 10 mg/kg
Description: as §3, §4

[13] = test system: p-IκB-α; test: Western blotting of brain, MPTP-treated mice: p-IκB-α; format: in vivo, C57BL/6 mice; conditions: Levodopa
Description: as §1

Compound	protein expression level of cytochrome C upregulated by, compared with sham mice [1] [folds]	iNos protein expression level elevated by, compared with sham group ([2]; MPTP-treated mice) [folds]	expression level of SOD lower than in sham group [3] [folds]	Mac-1 protein expression level elevated by, compared with normal cells [4] [folds]	protein expression level of cytochrome C upregulated [5] [folds]	number of TH-positive cells reduced, compared with sham group ([6]; MPTP-intoxicated mice, 20 mg/kg/day)	cell death ([7]; 1 mM MPTP) [%]	cell death ([7]; 2 mM MPTP) [%]	COX-2 protein overexpressed, with reference to sham operated group ([8]; MPTP-intoxicated rats) [fold]	expression of Mac-1 protein elevated, compared with sham groups ([9]; MPTP control rats) [fold]	elevated iNOS expression inhibited vs MPTP control [10] [fold]	effects of MPTP on Bcl-2 protein expression [11]	elevation of iNos expression ([2]; MPTP mice, Levodopa treatment)	numbers of TH-positive cells vs MPTP-intoxicated group ([6]; MPTP mice, levodopa 2 mg/kg oral)	p-IκB-α level reduced, compared to MPTP control group [12] [fold]	expression level of COX-2 downregulated ([8]; MPTP rats, levodopa 10 mg/kg) [fold]	increased p-IκB-α level [13]	elevated level of MAC-1 attenuated vs MPTP control ([9]; MPTP rats, levodopa 10 mg/kg) [fold]
CN1CC=C(c2ccccc2)CC1 [MPTP, 1-methyl-4-phenyl-1,2,3,6-tetrahydropyridine]	0.54	0.44	2.3	0.8	10	more than two-fold	29.05	68.89	6	6.4	–	–	–	–	–	–	–	–
N[C@@H](Cc1ccc(O)c(O)c1)C(=O)O [Levodopa]	–	–	–	–	–	–	–	–	–	–	2.9	significantly reversed	inhibited	significantly elevated	1.2	1.7	slightly restored	1.9
